Measured values reported in patent publication US10610515B2, “Composition including indoprofen and use thereof” (Samsung Electronics Co., Ltd., priority 2015, dated 2020).

Legend:
[1] = test system: mouse; conditions: cited from earlier work
[2] = test system: 25-month-old female mice; test: SDH and NADPH staining of extensor digitorum longus muscle of indoprofen-administered old mice; format: in vivo, mouse; conditions: old (25-month-old) mice, oral in corn oil, 4 weeks
Description: Immediately after separation, extensor digitorum longus muscles were fixed in OCT compound and frozen using liquid nitrogen, and then sectioned to a thickness of 7 μm with a cryo-cut freezing microtome. After SDH staining, the frozen tissue sections were reacted in 0.2 M phosphate buffer (pH 7.4) containing SDH at 37° C. for 10 minutes, washed with distilled water, and then sealed, followed by observation. For NADPH staining, the frozen tissue sections were reacted in 3.5 mM phosphate buffer (pH 7.4) containing 0.9 mM NADH, and 1.5 mM nitro blue tetrazolium at 37° C. for 30 minutes, washed with distilled water, and then sealed, followed by observation.
25-month-old female mice (weighing 30 g) were orally administered with indoprofen mixed with corn oil as an experimental group or corn oil only as a control group for 4 weeks. […] Staining of SDH and NADPH in extensor digitorum longus muscles of the old mice orally administered with indoprofen for 4 weeks was performed in the same manner as in 4 of Example 3.

[3] = test system: C57BL/6 female mice; test: Observation of lower limb muscles and heart of mice administered with indoprofen; format: in vivo, mouse; conditions: 1.5 mg/kg orally twice a day
Description: 10 week-old C57BL/6 female mice were bred at a temperature of 22±2° C., humidity of 55±5%, and a light-dark cycle of 12:12 hours. Mice were orally administered 1.5 mg/kg of indoprofen in 100 μl of PBS twice a day. A control group was orally administered with 100 μl of PBS twice a day. The mice were allowed free access to drinking water. Skeletal muscles were separated from the mice fed with indoprofen for 2 weeks, and subjected to immunoblot analysis. To evaluate functional consequence of PGC-1α increased by indoprofen treatment of skeletal muscle, lower limb muscles and organs of mice fed with indoprofen for 2 weeks were separated and analyzed.

[4] = test system: C2C12 myoblasts; test: Differentiation of indoprofen-treated myoblasts (MHC antibody fluorescence staining, DAPI); format: cell-based; conditions: 10 μM or 100 μM, differentiation 3 days, vs DMSO control (FIG. 2)
Description: C2C12 myoblasts were treated with 10 μM or 100 μM indoprofen and allowed to differentiate for 3 days. A control group was treated with DMSO alone. Fluorescence staining of C2C12 myotubes was performed using MHC antibody. The number of nuclei within one myotube was counted by DAPI staining. C2C12 cells were differentiated in DMED supplemented with 2% horse serum for 72 hours. The cells were washed with 1×PBS, and then fixed in 4% paraformaldehyde at room temperature for 15 minutes, followed by washing with 1×PBS three times. The cells were reacted with a permeabilizing buffer supplemented with 0.2% Triton-X for 10 minutes, and then washed with 1×PBS three times, followed by blocking using 5% fetal bovine serum at room temperature for 1 hour. A primary antibody, anti-MHC, was diluted with 5% goat serum at a ratio of 1:500 and allowed to react at 4° C. for 12 hours, followed by washing with 1×PBS three times. A secondary antibody, anti-mouse IgG-HRP 594 (Invitrogen) was diluted with 5% goat serum at a ratio of 1:500 and allowed to react at 4° C. for 1 hour, followed by washing with 1×PBS three times. DAPI is diluted with 1×PBS at a ratio of 1:10000 and allowed to react for 1 minute, followed by washing with 1×PBS and fluorescence microscopy.

[5] = test system: C57BL/6 female mice; test: SDH and NADPH staining of extensor digitorum longus muscle of indoprofen-administered mice; format: in vivo, mouse; conditions: oral, 2 weeks, 10 week-old mice
Description: 10 week-old C57BL/6 female mice were bred at a temperature of 22±2° C., humidity of 55±5%, and a light-dark cycle of 12:12 hours. Mice were orally administered 1.5 mg/kg of indoprofen in 100 μl of PBS twice a day. A control group was orally administered with 100 μl of PBS twice a day. The mice were allowed free access to drinking water. Skeletal muscles were separated from the mice fed with indoprofen for 2 weeks, and subjected to immunoblot analysis. Staining of succinic dehydrogenase (SDH) and NADPH in the extensor digitorum longus muscle of a mouse administered with indoprofen for 2 weeks was performed. This staining method is a method of analyzing mitochondrial activity by measuring activities of SDH and NADPH which are enzymes involved in the electron transport chain of mitochondria. Staining degree of SDH and NADPH represents a content of oxidative muscle fiber. Immediately after separation, extensor digitorum longus muscles were fixed in OCT compound and frozen using liquid nitrogen, and then sectioned to a thickness of 7 μm with a cryo-cut freezing microtome. After SDH staining, the frozen tissue sections were reacted in 0.2 M phosphate buffer (pH 7.4) containing SDH at 37° C. for 10 minutes, washed with distilled water, and then sealed, followed by observation. […]

[6] = test system: C57BL/6 female mice; test: Immunohistochemistry of 2a/2b type muscle fiber in extensor digitorum longus muscles of indoprofen-treated mice; format: in vivo, mouse; conditions: oral, 2 weeks
Description: 10 week-old C57BL/6 female mice were bred at a temperature of 22±2° C., humidity of 55±5%, and a light-dark cycle of 12:12 hours. Mice were orally administered 1.5 mg/kg of indoprofen in 100 μl of PBS twice a day. A control group was orally administered with 100 μl of PBS twice a day. The mice were allowed free access to drinking water. Skeletal muscles were separated from the mice fed with indoprofen for 2 weeks, and subjected to immunoblot analysis. To examine distribution of 2a type muscle fiber and 2b type muscle fiber, extensor digitorum longus muscles of mice administered with indoprofen for 2 weeks were subjected to immunohistochemistry. 2a type muscle fiber is an oxidative muscle fiber type, and there are two types: aerobic, that is, oxygen-dependent energy source and anaerobic, that is, oxygen-independent energy source. 2b type muscle fiber is a glycolytic muscle fiber type, and includes only anaerobic energy source. Frozen sections stored in a deep freezer of −80° C. were washed with 1×PBS twice, and fixed with 4% paraformaldehyde at room temperature for 15 minutes, and then washed with 1×PBS twice. The tissue and a permeabilization buffer (0.2% Triton-X/PBS) were reacted at room temperature for 30 minutes, and washed with 1×PBS twice. […] After sealing, a fluorescence microscope (Nikon, body: Ti-u, camera: DS-RI1, program: NIS-elements BR 3.1) was used for analysis.

[7] = test system: C2C12 myoblasts; test: Immunoblot of PGC-1α, differentiation markers and mitochondrial protein in indoprofen-treated myoblasts; format: cell-based
Description: The effect of indoprofen on the differentiation of C2C12 myoblasts into muscle cells was analyzed. Dulbecco's Modified Eagle Medium (DMEM) supplemented with 15% fetal bovine serum was used as a growth medium for the culture of C2C12 myoblasts, and DMEM supplemented with 2% horse serum was used as a differentiation medium for differentiation into muscle cells. To induce differentiation of C2C12 myoblasts into muscle cells, 10 μM or 100 μM indoprofen dissolved in DMSO was added to the experimental groups, and DMSO alone was added to the control group. The cells were cultured for 48 hours to induce differentiation, and then a RIPA buffer (50 mM Tris-HCl, pH 7.5, 150 mM NaCl, 1% Triton X100, 0.1% SDS, 2 mM EDTA, 0.5% sodium deoxycholate, Proteinase Inhibitor) was added to the harvested cells to allow lysis for 30 minutes, followed by centrifugation at 13,000 rpm for 30 minutes. The amount of protein in the cell lysis sample was quantified and an equal amount of protein was subjected to 7% or 15% SDS-PAGE. The protein was transferred onto a PVDF membrane, and then incubated in a blocking buffer containing 5% skim milk for 1 hour. Primary antibodies specific to individual proteins, diluted in 5% BSA, are reacted with the membrane at 4° C. for 12 hours, and then the membrane was washed with a wash buffer for 5 minutes three times. Secondary antibodies were diluted with the blocking buffer and allowed to react with the membrane at room temperature for 1 hour. Thereafter, the membrane was washed with the wash buffer for 5 minutes three times, and then exposed to X-ray film using an ECL reagent (Roche) to confirm protein expression levels.

[8] = test system: C57BL/6 female mice; test: Immunoblotting of tibialis anterior muscles of mice administered with indoprofen; format: in vivo, mouse; conditions: 1.5 mg/kg orally twice a day, 2 weeks, 10 week-old mice, vs PBS control (FIG. 3A)
Description: 10 week-old C57BL/6 female mice were bred at a temperature of 22±2° C., humidity of 55±5%, and a light-dark cycle of 12:12 hours. Mice were orally administered 1.5 mg/kg of indoprofen in 100 μl of PBS twice a day. A control group was orally administered with 100 μl of PBS twice a day. The mice were allowed free access to drinking water. Skeletal muscles were separated from the mice fed with indoprofen for 2 weeks, and subjected to immunoblot analysis.

[9] = test system: human PGC-1α promoter; test: PGC-1α promoter luciferase reporter screening in C2C12-PGC-1α reporter cell line; format: cell-based, mouse; conditions: 10 μM, 48 hours, C2C12-PGC-1α reporter cells, vs DMSO control
Description: To screen a compound activating PGC-1α gene expression in C2C12 myoblast cells, a PGC-1α reporter-expressing C2C12 cell line (hereinafter, referred to as ‘PGC-1α reporter cell line’ or ‘C2C12-PGC-1α cell line) was established. A vector expressing luciferase and dscGFP (destabilized Green Fluorescent Protein) under a human PGC-1α promoter having a length of 1 kb was prepared, and this vector was inserted into lentivirus to transfect C2C12 cells. To select a cell line that genetically stably expressed the vector, fluorescence emitted from green fluorescent protein (GFP) included in the vector was monitored. 5 μg/ml of puromycin, a selection marker for the vector, was added to a cell culture medium, and a cell line expressing PGC-1α reporter was selected. […] The expression level is measured by luminescence after addition of a luciferase substrate, thereby determining activation or inhibition of PGC-1α transcription by the compound.
The C2C12-PGC-1α reporter cell line prepared in Section 1 was used to screen a PGC-1α expression regulator from 2320 compounds provided by Korea Chemical Bank. […] 48 hours later, luminescence by luciferase was measured. […] Then, luminescence is measured. The measured values were normalized to each well and plate, and a value measured in a well treated with a solvent of the compound, DMSO, is used as a control group to express the value as a relative ratio.

[10] = test system: 25-month-old female mice; test: Weighing lower limb muscles of old mice administered with indoprofen; format: in vivo, mouse; conditions: old (25-month-old) mice, fed 4 weeks (FIG. 4C)
Excerpt: To analyze changes in the muscle weight of old mouse by administration of indoprofen, lower limb muscles were separated from 25-month-old female mice (weighing 30 g) fed with indoprofen for 4 weeks.

[11] = 10 μM or 100 μM, 48 hours differentiation, Western blot, vs DMSO control (FIG. 1)

CC(=O)Oc1ccccc1C(=O)O [aspirin]
ID50 ([1]; for reference): 250 mg/kg

CC(C(=O)O)c1ccc(N2Cc3ccccc3C2=O)cc1 (stereo not shown) [indoprofen, 2-[4-(1-oxo-1,3-dihydro-2H-isoindol-2-yl)phenyl]propionic acid]
percentage of muscle fiber having increased SDH activity in extensor digitorum longus muscle ([2]; vs corn oil control (FIG. 4A)): increased
percentage of muscle fiber having increased NADPH activity in extensor digitorum longus muscle ([2]; vs corn oil control (FIG. 4B)): increased
heart size ([3]; 2 weeks (FIG. 3B (C))): no change
appearance of quadriceps muscle and gastrocnemius muscle (white vs red muscle) ([3]; 2 weeks, vs control group (FIG. 3B)): converted to red muscles
myotube formation and fusion of myoblasts [4]: increased
percentage of the nuclei labeled with MHC antibody [4]: significantly increased
percentage of muscle fiber having increased SDH activity in extensor digitorum longus muscle ([5]; vs control group (FIG. 3E)): increased
percentage of muscle fiber having increased NADPH activity in extensor digitorum longus muscle ([5]; vs control group (FIG. 3F)): increased
number of oxidative 2a type muscle fiber in extensor digitorum longus muscle ([6]; anti-Myh2a antibody, vs non-treated control (FIG. 3C)): increased
number of glycolytic 2b type muscle fiber in extensor digitorum longus muscle ([6]; anti-Myh2b antibody, vs non-treated control (FIG. 3D)): decreased
expression of PGC-1α [7, 11]: greatly increased
expression of mitochondrial protein cytochrome C [7, 11]: greatly increased
expression of muscle differentiation marker MHC [7, 11]: greatly increased
expression of muscle differentiation marker myogenin [7, 11]: greatly increased
expression of myoglobin [7, 11]: greatly increased
concentration of optimal activity ([7]; C2C12 myoblasts, protein expression (FIG. 1)): 100 µM
lethal dose (LD)-50 for 50% mouse mortality ([1]; mouse): 700 mg per mouse body weight (kg)
expression of PGC-1α in tibialis anterior muscle [8]: increased
expression of myoglobin in tibialis anterior muscle [8]: increased
PGC-1α promoter activity (luciferase luminescence, relative ratio to DMSO control) [9]: greatly increased
weight of lower limb muscle (Sol, Gas, EDL, TA) [10]: increases
